One may read the EC50 as the concentration giving half of the maximal effect. A higher EC50 goes with lower potency in that assay.

These results are taken from patent US20180214428A1, “3-(1H-INDOL-2-YL)-1H-PYRAZOLO[3,4-B]PYRIDINES AND THERAPEUTIC USES THEREOF” (Samumed, LLC, priority 2015, published 2018).

Assay [1] deals with Wnt activity (Sp5-Luc reporter gene, SW480 colon carcinoma cells). As to the kind of experiment: Screening assay for Wnt activity: Sp5-Luc reporter gene assay in SW480 cells. The conditions noted are these: Homo sapiens, overnight incubation. It counts as cell-based, human. The source says:
The screening assay for Wnt activity is described as follows. Reporter cell lines can be generated by stably transducing cancer cell lines (e.g., colon cancer) or primary cells (e.g., IEC-6 intestinal cells) with a lentiviral construct that includes a Wnt-responsive promoter driving expression of the firefly luciferase gene.
SW480 colon carcinoma cells were transduced with a lentiviral vector expressing luciferase with a human Sp5 promoter consisting of a sequence of eight TCF/LEF binding sites. SW480 cells stably expressing the Sp5-Luc reporter gene and a hygromycin resistance gene were selected by treatment with 150 μg/mL of hygromycin for 7 days. These stably transduced SW480 cells were expanded in cell culture and used for all further screening activities. Each compound was dissolved in DMSO as a 10 mM stock and used to prepare compound source plates. Serial dilution (1:3, 10-point dose-response curves starting from 10 μM) and compound transfer was performed using the ECHO 550 (Labcyte, Sunnyvale, Calif.) into 384-well white solid bottom assay plates (Greiner Bio-One) with appropriate DMSO backfill for a final DMSO concentration of 0.1%. For Sp5-Luc reporter gene assays, the cells were plated at 4,000 cells/well in 384-well plates with medium containing 1% fetal bovine serum and incubated overnight at 37° C. and 5% CO2. Following incubation, 20 μl of BrightGlo luminescence reagent (Promega) was added to each well of the 384-well assay plates. The plates were placed on an orbital shaker for 2 min and then luminescence was quantified using the Envision (Perkin Elmer) plate reader. Readings were normalized to DMSO only treated cells, and normalized activities were utilized for EC50 calculations using the dose-response log (inhibitor) vs. response variable slope (four parameters) nonlinear regression feature available in GraphPad Prism 5.0 (or Dotmatics). For EC50 of >10 μM, the percent inhibition at 10 μM is provided.

For a further assay, the system named is SW480 colon cancer cells. The assay can be described thus: Cell viability assay (CellTiter-Blue) in SW480 colon cancer cells. It counts as cell-based, human. As to conditions: Homo sapiens, 96 h, four days, CellTiter-Blue. Here is the method: Representative compounds were screened using the following assay procedure to assess the effect on cell viability as described below.
Each compound was dissolved in DMSO as a 10 mM stock and used to prepare compound source plates. Serial dilution (1:3, 8-point dose-response curves from 10 μM to 0.0045 μM) and compound transfer was performed using the ECHO 550 (Labcyte, Sunnyvale, Calif.) into 96-well clear bottom, black-walled plates (Corning-Costar).
Approximately 2×10^3 SW480 colon cancer cells were seeded into each well and allowed to incubate in the presence or absence of compound for four days at 37° C./5% CO2. Eight replicates of DMSO-treated cells served as controls and cells treated with compound were performed in duplicate.
After incubation, 20 μL of CellTiter-Blue (Promega) was added to each well allowed to incubate for approximately 3 hours. This reagent was a buffered solution which contains resazurin, metabolically active cells were able to reduce rezarurin (blue) into resorufin (pink) which was highly fluorescent. This measured fluorescence was used as a readout for cell viability.
After incubation, the plates were read at Ex 560 nm Em 590 nm (Cytation 3, BioTek). Dose-response curves were generated and EC50 concentration values were calculated using non-linear regression curve fit in the GraphPad Prism (San Diego, Calif.) or Dotmatics' Studies Software (Bishops Stortford, UK). For EC50 of >10 μM, the percent inhibition at 10 μM is provided.
(In general: Resazurin is reduced to fluorescent resorufin, in cell work by metabolically active cells.)

Assay [2] deals with primary human fibroblasts derived from IPF patients (LL29 cells). As to the kind of experiment: Inhibition of the fibrotic process: αSMA staining in TGF-β1 treated LL29 fibroblasts. As to conditions: Homo sapiens, Fibroblast, 96 h, TGF-β1 20 ng/mL, 4 days, % αSMA positive cells. It counts as cell-based. The source says: Representative compounds were screened using primary human fibroblasts (derived from IPF patients) treated with TGF-β1 to determine their ability to inhibit the fibrotic process.
Primary human fibroblasts derived from IPF patients (LL29 cells) [^1Xiaoqiu Liu, et. al., “Fibrotic Lung Fibroblasts Show Blunted Inhibition by cAMP Due to Deficient cAMP Response Element-Binding Protein Phosphorylation”, Journal of Pharmacology and Experimental Therapeutics (2005), 315(2), 678-687; ^2Watts, K. L., et. al., “RhoA signaling modulates cyclin D1 expression in human lung fibroblasts; implications for idiopathic pulmonary fibrosis”, Respiratory Research (2006), 7(1), 88] were obtained from American Type Culture Collection (ATCC) and expanded in F12 medium supplemented with 15% Fetal Bovine Serum and Penicillin/Streptomycin.
Each compound was dissolved in DMSO as a 10 mM stock and used to prepare compound source plates. Serial dilution (1:2, 11-point dose-response curves from 10 μM to […]) and compound transfer was performed using the ECHO 550 (Labcyte, Sunnyvale, Calif.) into 384-well clear bottom assay plates (Greiner Bio-One) with appropriate DMSO backfill for a final DMSO concentration of 0.1%. LL29 cells are plated at 1,500 cells/well in 80 μL/well F12 medium supplemented with 1% Fetal Bovine Serum. One hour after addition of the cells, TGF-01 (Peprotech; 20 ng/mL) was added to the plates to induce fibrosis (ref. 1 and 2 above). Wells treated with TGF-β1 and containing DMSO were used as controls. Cells were incubated at 37° C. and 5% CO2 for 4 days. Following incubation for 4 days, SYTOX green nucleic acid stain (Life Technologies [Thermo Fisher Scientific]) was added to the wells at a final concentration of 1 μM and incubated at room temperature for 30 min. Cells were then fixed using 4% formaldehyde (Electron Microscopy Sciences), washed 3 times with PBS followed by blocking and permeabilization using 3% Bovine Serum Albumin (BSA; Sigma) and 0.3% Triton X-100 (Sigma) in PBS. Cells were then stained with antibody specific to α-smooth muscle actin (aSMA; Abcam) (ref. 1 and 2 above) in 3% Bovine Serum Albumin (BSA; Sigma) and 0.3% Triton X-100 (Sigma) in PBS, and incubated overnight at 4° C. Cells were then washed 3 times with PBS, followed by incubation with Alexa Flor-647 conjugated secondary antibody (Life Technologies [Thermo Fisher Scientific]) and DAPI at room temperature for 1 hour. Cells were then washed 3 times with PBS and plates were sealed for imaging. αSMA staining was imaged by excitation at 630 nm and emission at 665 nm and quantified using the Compartmental Analysis program on the CellInsight CX5 (Thermo Scientific). Dead or apoptotic cells were excluded from analysis based on positive SYTOX green staining. % of total cells positive for aSMA were counted in each well and normalized to the average of 11 wells treated with TGF-01 on the same plate using Dotmatics' Studies Software. The normalized averages (fold change over untreated) of 3 replicate wells for each compound concentration were used to create dose-responses curves and EC50 values were calculated using non-linear regression curve fit in the Dotmatics' Studies Software. For EC50 of >10 μM, the percent inhibition at 10 μM is provided.

A further assay relates to IL-6. As to the kind of experiment: IL-6 inhibition in LPS-stimulated THP-1 monocytes (HTRF). It is filed as cell-based, human. The conditions noted are these: Homo sapiens; THP-1 cells, 500 ng/mL LPS, 22 h, HTRF IL-6 readout; 10-point dose-response from 10 μM. Here is the method: Human monocyte cell line (THP-1 cells; Catalog # TIB-202, ATCC, Manassas, Va.) were cultured in Roswell Park Memorial Institute (RPMI) 1640 Medium (Catalog #21870-100, Buffalo, N.Y.) with 1% L-glutamine, 1% HEPES, 1% Sodium Pyruvate, 2% Sodium Bicarbonate supplemented with 100 units/mL penicillin, 50 μg/mL streptomycin, 2-mercaptoethanol (0.05 mM) [basal medium] and 10% fetal bovine serum (Catalog #16140089, Life Technologies, Carlsbad, Calif.) at 37° C. and 5% CO2.
THP-1 cells were cultured in basal media with 1% FBS for 24 hours before the start of the assay. Each compound was dissolved in DMSO as a 10 mM stock and used to prepare compound source plates. Serial dilution (1:3, 10-point dose-response curves starting from 10 μM) and compound transfer was performed using the ECHO 550 (Labcyte, Sunnyvale, Calif.) into 384-well white low volume assay plates (Greiner Bio-One) with appropriate DMSO backfill for a final DMSO concentration of 0.1%. THP-1 cells were plated at 5000 cells/well in the 384-well plates and incubated at 37° C. for 2 h. 500 ng/mL of LPS was added after 2 hours and cells were incubated for another 22 hours at 37° C. Plates were spun in a centrifuge for 1 minute at […] and a mixture of anti-IL6 XL665, and anti-IL6 Cryptate diluted in reconstitution buffer (Cisbio Inc.) was added to each well. Following incubation for 3 hrs at room temperature, Homogeneous Time-Resolved Fluorescence (HTRF) was measured using the Envision (Perkin Elmer) at 665 nm and […]. The ratio of fluorescence at 665 nm to 620 nm was used as a readout for IL6 quantification. All samples were processed in duplicate. Readings were normalized to DMSO treated cells and normalized activities were utilized for EC50 calculations using the dose-response log (inhibitor) vs. response variable slope (four parameters) nonlinear regression feature available in GraphPad Prism 5.0 (or Dotmatics). For EC50 of >10 μM, the percent inhibition at 10 μM is provided.
On the technique in general: Time-resolved FRET reads energy transfer from a long-lived donor to a nearby acceptor.

`O=C(Nc1cncc(-c2cnc3[nH]nc(-c4cc5c(N6CCCCC6)cccc5[nH]4)c3c2)c1)C1CC1` [Compound 164, N-(5-(3-(4-(piperidin-1-yl)-1H-indol-2-yl)-1H-pyrazolo[3,4-b]pyridin-5-yl)pyridin-3-yl)cyclopropanecarboxamide]: the EC50 in assay [1] was found to be 1.08 µM; in the assay on SW480 colon cancer cells, 9.94 µM; in assay [2], 4.33 µM; in the assay on IL-6 it was 1.19 µM.
